Assays:
[1] = literature; cited from earlier work
BDNF = assay: Hippocampal BDNF levels by sandwich ELISA; format: in vivo, mice; settings: 3-week treatment (FIG. 3B), compared to saline
Procedure: Animals. ICR outbred mice (Envigo RMS (Harlen), Israel) were kept in the vivarium of the Psychobiological laboratory of the Open University, […] Medical Center, Jerusalem. Mice were kept on a reversed 12-hour light/dark cycle and given ad libitum access to food and water. All experiments were performed during the dark phase under red light (7:00-19:00). All experiments were approved by the Committee for animal care and use according to the NIH guidelines. Drugs administration. […] Assessment of BDNF levels. Hippocampus tissue samples are prepared as previously described ([…]., et al., European neuropsychopharmacology, 2006. 16(5): p. 329-339). Briefly, tissues were homogenized in cold extraction Tris-buffer and then acidified with 0.1 M HCl (pH 3.0) for 15 min at room temperature. Homogenates were neutralized with 0.1 M NaOH (pH 7.6) and centrifuged in a microcentrifuge at 7,000 g for 10 min. BDNF levels in the supernatant were evaluated using sandwich ELISA as previously described (Baker-Herman, T. L., et al., Nat Neurosci, 2004. 7(1): p. 48-55).

ICR outbred mice [2] = assay: Forced Swim Test (FST), depressive-like behavior; format: in vivo; settings: 3 week treatment after 30 days UCMS (FIG. 5B); in comparison to the NHT and Saline groups
Procedure: Animals. ICR outbred mice (Envigo RMS (Harlen), Israel) were kept in the vivarium of the Psychobiological laboratory of the Open University, […] Medical Center, Jerusalem. Mice were kept on a reversed 12-hour light/dark cycle and given ad libitum access to food and water. All experiments were performed during the dark phase under red light (7:00-19:00). All experiments were approved by the Committee for animal care and use according to the NIH guidelines. Drugs administration. […] Unpredictable chronic mild stress (UCMS). Mice were exposed to UCMS for 4 weeks at the age of 4 weeks as previously described (Malkoff, A., et al. (2008) J Neural Transm 115, 1563-1571). Forced Swim Test (FST). […] Depression like behavior was measured as the time the animal spent floated without moving, and swimming was defined as the time the animal spent engaged in active swimming or struggle movement. Effects were evaluated in independent mice groups following 1 and 3 weeks of treatment. The test was recorded by Viewer III (BIOB SERVE) software. […] Data was analyzed using a one-way ANOVA with Treatment as a between subject variable, performed on the time spent in the center area in the Novel Open Field and the time spent in the open arms for anxiety like behavior, and depressive like behavior was measured as the time the animal spent floating without moving. […]

ICR outbred mice [3] = assay: Elevated plus-maze (EPM), anxiety-like behavior in UCMS-stressed mice; format: in vivo; settings: 3-week treatment (FIG. 2), compared to saline
Procedure: Animals. ICR outbred mice (Envigo RMS (Harlen), Israel) were kept in the vivarium of the Psychobiological laboratory of the Open University, […] Medical Center, Jerusalem. Mice were kept on a reversed 12-hour light/dark cycle and given ad libitum access to food and water. All experiments were performed during the dark phase under red light (7:00-19:00). All experiments were approved by the Committee for animal care and use according to the NIH guidelines. Drugs administration. […] Unpredictable chronic mild stress (UCMS). Mice were exposed to UCMS for 4 weeks at the age of 4 weeks as previously described (Malkoff, A., et al. (2008) J Neural Transm 115, 1563-1571). Elevated plus-maze (EPM) and Open field test (OFT). Anxiety-like behavior was assessed using EPM and OFT as previously described ([…]. (2009) Brain Res 1256, 138-148). Locomotion was assessed using the OFT and expressed as the percentage of time that the mouse moved in a velocity above 0.1 pixel/sec. Data analysis and interpretation of results. Data was analyzed using a one-way ANOVA with Treatment as a between subject variable, performed on the time spent in the center area in the Novel Open Field and the time spent in the open arms for anxiety like behavior, and depressive like behavior was measured as the time the animal spent floating without moving. […]

ICR outbred mice [4] = assay: Novel Open Field (NOF), anxiety-like behavior; format: in vivo; settings: 3 weeks of treatment after 30 days UCMS (FIG. 4B); in comparison to the Saline and UR groups
Procedure: Animals. ICR outbred mice (Envigo RMS (Harlen), Israel) were kept in the vivarium of the Psychobiological laboratory of the Open University, […] Medical Center, Jerusalem. Mice were kept on a reversed 12-hour light/dark cycle and given ad libitum access to food and water. All experiments were performed during the dark phase under red light (7:00-19:00). All experiments were approved by the Committee for animal care and use according to the NIH guidelines. Drugs administration. […] Unpredictable chronic mild stress (UCMS). Mice were exposed to UCMS for 4 weeks at the age of 4 weeks as previously described (Malkoff, A., et al. (2008) J Neural Transm 115, 1563-1571). Novel Open Field (NOF). The novel open field consists of an empty square arena (40×40×40 cm) divided into 36 identical squares and surrounded by Perspex opaque walls. […] Mice were placed in the center of the arena and their behavior was video recorded for a total of 5 min, and later coded by an observer blind to the mice's treatment. Anxiety-like behavior was measured by the time spent in the peripheral area, i.e., the peripheral ring of the arena (6.67 cm from each wall, Walsh & Cummins, (1976) Psychological Bulletin, 83 (3), 482-504). […] Effects were evaluated in independent mice groups following 1 and 3 weeks of treatment. […]

ICR outbred mice [5] = assay: Open field test (OFT), anxiety-like behavior; format: in vivo; settings: 1-week treatment (FIG. 1C)
Procedure: Animals. ICR outbred mice (Envigo RMS (Harlen), Israel) were kept in the vivarium of the Psychobiological laboratory of the Open University, […] Medical Center, Jerusalem. Mice were kept on a reversed 12-hour light/dark cycle and given ad libitum access to food and water. All experiments were performed during the dark phase under red light (7:00-19:00). All experiments were approved by the Committee for animal care and use according to the NIH guidelines. Drugs administration. […] Unpredictable chronic mild stress (UCMS). Mice were exposed to UCMS for 4 weeks at the age of 4 weeks as previously described (Malkoff, A., et al. (2008) J Neural Transm 115, 1563-1571). Elevated plus-maze (EPM) and Open field test (OFT). Anxiety-like behavior was assessed using EPM and OFT as previously described ([…]. (2009) Brain Res 1256, 138-148). Locomotion was assessed using the OFT and expressed as the percentage of time that the mouse moved in a velocity above 0.1 pixel/sec.

SMILES: C/C=C1/CN2CCc3c([nH]c4ccccc34)[C@@H]2C[C@@H]1/C(=C/OC)C(=O)OC [GM, geissoschizine methyl ether]
- isolation-induced increased aggressiveness and decreased sociality [1]: ameliorated

SMILES: CN(C)CCC[C@@]1(c2ccc(F)cc2)OCc2cc(C#N)ccc21 [escitalopram]
- hippocampal BDNF levels (BDNF): increased BDNF levels
- time floated-immobile in the FST (depressive-like behavior) (ICR outbred mice [2]): spent significantly less time floated-immobile
- anxiety-like behavior in the EPM (time spent in the open arms) (ICR outbred mice [3]): reduced anxiety-like behavior
- time in the center of the arena, novel open field (ICR outbred mice [4]): spent significantly more time in the center of the arena
- anxiety-like behavior in the OFT (ICR outbred mice [5]): ineffective
